Measured values published in patent US7528128B2, “Pyrrolo[2,1-C][1,4]benzodiazepine hybrids and a process for the preparation thereof” (Council of Scientific & Industrial Research, priority 2006, dated 2009).
≈ marks a conversion by molar mass, not a printed value.

Experiments:
[1] = system: duplex-form calf thymus DNA (CT-DNA); assay: Thermal denaturation studies with CT-DNA; format: binding; details: for ΔTm after incubation at 37° C. for 0 h / ΔTm after incubation at 37° C. for 18 h / ΔTm after incubation at 37° C. for 36 h: [PBD]:[DNA] 1:5, CT-DNA 100 μM, ligand 20 μM; for ΔTm after incubation at 37° C. for 0 h: pH 7.00, 0 h; for ΔTm after incubation at 37° C. for 18 h: pH 7.00, 18 h; for ΔTm after incubation at 37° C. for 36 h: pH 7.00, 36 h; for course of ΔTm over 0 hr, 18 hr and 36 hr (in words): incubation at 37° C.
Protocol: Compounds were subjected to thermal denaturation studies with duplex-form calf thymus DNA (CT-DNA) using an adaptation of a reported procedure. Working solutions in aqueous buffer (10 mM NaH2PO4/Na2HPO4, 1 mM Na2EDTA, pH 7.00+0.01) containing CT-DNA (100 μm in phosphate) and the PBD (20 μm) were prepared by addition of concentrated PBD solutions in DMSO to obtain a fixed [PBD]/[DNA] molar ratio of 1:5. The DNA-PBD solutions were incubated at 37° C. for 0, 18, and 36 h prior to analysis. Samples were monitored at 260 nm using a Beckman DU-7400 spectrophotometer fitted with high performance temperature controller, and heating was applied at 1° C. min−1 in the 40-90° C. range. DNA helix coil transition temperatures (Tm) were obtained from the maxima in the (dA260)/dT derivative plots. Results are given as the mean ±standard deviation from three determinations and are corrected for the effects of DMSO co-solvent using a linear correction term. Drug-induced alterations in DNA melting behaviour are given by: ΔTm=Tm(DNA+PBD)−Tm (DNA alone), where the Tm value for the PBD-free CT-DNA is 69.0±0.01.

HT1080 (oral) = assay: In vitro cytotoxicity, 48 h continuous drug exposure; format: cell-based, human; details: for Activity status in terms of IC50 value: HT1080, Oral; for cell growth by %: HT1080, relative to untreated control cells
Protocol: (§1) In vitro evaluation of cytotoxic activity. The compound 5a, 5b, 5g, 5i and 5j were evaluated for in vitro anticancer activity against nine human tumour cells derived from six cancer types (colon, prostate, oral, lung, cervix and breast cancer) as shown in Table 3. […] Compounds 5a, 5b, 5g, 5i and 5j have been evaluated for their in vitro cytotoxicity in selected human cancer cell lines of colon (Colo205), lung (Hop-62), cervix (SiHa), prostate (DU145, PC3), oral (DWD, HT1080), and breast (MCF7, Zr-75-1) origin. A protocol of 48 h continuous drug exposure has been used and an […] has been used to estimate cell viability or growth. […] Compound 5a, Colo205 cell growth by 83%, DU145 cell growth by 84%, DWD cell growth by 70%, Hop62 cell growth by 87%, HT1080 cell growth by 80%, MCF7 cell growth by 73%, PC3 cell growth by 91%, SiHa cell growth by 67%, Zr-75-1 cell growth by 76%. Compound 5b, Colo205 cell growth by 20%, DU145 cell growth by 64%, DWD cell growth by 70%, Hop62 cell growth by 78%, HT1080 cell growth by 72%, MCF7 cell growth by 69%, PC3 cell growth by 72%, SiHa cell growth by 20%, Zr-75-1 cell growth by 20%. Compound 5g, Colo205 cell growth by 50%, DU145 cell growth by 20%, DWD cell growth by 94%, Hop62 cell growth by 84%, HT1080 cell growth by 94%, MCF7 cell growth by 71%, PC3 cell growth by 86%, SiHa cell growth by 74%, Zr-75-1 cell growth by 72%. Compound 5i, DU145 cell growth by 42%, Hop62 cell growth by 60%, HT1080 cell growth by 70%, Compound 5j, Colo205 cell growth by 44%, DU145 cell growth by 57%, DWD cell growth by 65%, Hop62 cell growth by 53%, HT1080 cell growth by 71%, PC3 cell growth by 81%, SiHa cell growth by 77%.

DWD (oral) = assay: as above; format: cell-based, human; details: for cell growth by %: relative to untreated control cells
Protocol: as §1

PC3 (prostate) = assay: as above; format: cell-based, human; details: for cell growth by %: PC3, relative to untreated control cells
Protocol: as §1

MCF7 (breast) = assay: as above; format: cell-based, human; details: for cell growth by %: MCF7, relative to untreated control cells
Protocol: as §1

Zr-75-1 (breast) = assay: as above; format: cell-based, human; details: for cell growth by %: Zr-75-1, relative to untreated control cells
Protocol: as §1

Hop62 (lung) = assay: as above; format: cell-based, human; details: for Activity status in terms of IC50 value: Hop62, Lung; for cell growth by %: Hop62, relative to untreated control cells
Protocol: as §1

Colo205 (colon) = assay: as above; format: cell-based, human; details: for Activity status in terms of IC50 value: Colo205, Colon; for cell growth by %: Colo205, relative to untreated control cells
Protocol: as §1

SiHa (cervix) = assay: as above; format: cell-based, human; details: for cell growth by %: relative to untreated control cells
Protocol: as §1

DU145 (prostate) = assay: as above; format: cell-based, human; details: for Activity status in terms of IC50 value: DU145, Prostate; for cell growth by %: DU145, relative to untreated control cells
Protocol: as §1

[2] = system: selected human cancer cell lines; assay: In vitro cytotoxicity in selected human cancer cell lines (overall statements); format: cell-based; details: Table 3
Protocol: as §1

Compound | ΔTm after incubation at 37° C. for 0 h [1] [°C] | ΔTm after incubation at 37° C. for 18 h [1] [°C] | ΔTm after incubation at 37° C. for 36 h [1] [°C] | course of ΔTm over 0 hr, 18 hr and 36 hr (in words) [1] | Activity status in terms of IC50 value (HT1080 (oral)) [µg/mL] | cell growth by % (HT1080 (oral)) [%] | Activity status in terms of IC50 value (DWD (oral); Oral) [µg/mL] | cell growth by % (DWD (oral)) [%] | Activity status in terms of IC50 value (PC3 (prostate); PC3, Prostate) [µg/mL] | cell growth by % (PC3 (prostate)) [%] | Activity status in terms of IC50 value (MCF7 (breast); MCF7, Breast) [µg/mL] | Activity status in terms of IC50 value (Zr-75-1 (breast); Zr-75-1, Breast) [µg/mL] | Activity status in terms of IC50 value (Hop62 (lung)) [µg/mL] | cell growth by % (Hop62 (lung)) [%] | Activity status in terms of IC50 value (Colo205 (colon)) [µg/mL] | cell growth by % (Colo205 (colon)) [%] | Activity status in terms of IC50 value (SiHa (cervix); Cervix) [µg/mL] | cell growth by % (SiHa (cervix)) [%] | Activity status in terms of IC50 value (DU145 (prostate)) [µg/mL] | cell growth by % (DU145 (prostate)) [%] | other results
7-methoxy-8-{3-[2-benzoyl-(4,6-dichlorophenyloxy)propoxy]}-(11aS)-1,2,3,11a-tetra hydro-5H-pyrrolo[2,1-c][1,4]benzodiazepine-5-one [Compound 5g] | 1.4 | 1.6 | 2.3 | gradually increased | 6 | 94 | 6 | 94 | 14 | 86 | 29 | 28 | 16 | 84 | 50 | 50 | 26 | 74 | 80 | 20 | cell growth by % (MCF7 (breast)): 71%; cell growth by % (Zr-75-1 (breast)): 72%; cytotoxicity against some cancer cell lines (in words) [2]: promising cytotoxicity
7-methoxy-8-{3-[2-benzoyl-(4-chlorophenyloxy)propoxy]}-(11aS)-1,2,3,11a-tetrahydro-5H-pyrrolo[2,1-c][1,4]benzodiazepine-5-one [Compound 5a] | 1.4 | 1.7 | 2.2 | gradually increased | 20 | 80 | 30 | 70 | 9 | 91 | 27 | 24 | 13 | 87 | 17 | 83 | 43 | 67 | 16 | 84 | cell growth by % (MCF7 (breast)): 73%; cell growth by % (Zr-75-1 (breast)): 76%; cytotoxicity against some cancer cell lines (in words) [2]: promising cytotoxicity
COc1cccc2c1C(=O)c1c(O)c3c(c(O)c1C2=O)C[C@@](O)(C(=O)CO)C[C@@H]3O[C@H]1C[C@H](N)[C@H](O)[C@H](C)O1 [ADR, Adriamycin, reference compound] | – | – | – | – | – | – | – | – | – | – | – | – | – | – | – | – | – | – | – | – | IC50 (HT1080 (oral); Homo sapiens, HT-1080, HT1080, Oral, read-out: Activity status in terms of IC50 value): 4 µg/mL (≈ 7.36 µM); IC50 (DWD (oral); Homo sapiens, Oral, read-out: Activity status in terms of IC50 value): 2 µg/mL (≈ 3.68 µM); IC50 (PC3 (prostate); Homo sapiens, PC3, Prostate, read-out: Activity status in terms of IC50 value): 5 µg/mL (≈ 9.2 µM); IC50 (MCF7 (breast); Homo sapiens, MCF7, Breast, read-out: Activity status in terms of IC50 value): 5 µg/mL (≈ 9.2 µM); IC50 (Zr-75-1 (breast); Homo sapiens, Zr-75-1, Breast, read-out: Activity status in terms of IC50 value): 5 µg/mL (≈ 9.2 µM); IC50 (Hop62 (lung); Homo sapiens, HOP-62, Hop62, Lung, read-out: Activity status in terms of IC50 value): 5 µg/mL (≈ 9.2 µM); IC50 (Colo205 (colon); Homo sapiens, COLO 205, Colo205, Colon, read-out: Activity status in terms of IC50 value): 5 µg/mL (≈ 9.2 µM); IC50 (SiHa (cervix); Homo sapiens, Cervix, read-out: Activity status in terms of IC50 value): 5 µg/mL (≈ 9.2 µM); IC50 (DU145 (prostate); Homo sapiens, DU-145, DU145, Prostate, read-out: Activity status in terms of IC50 value): 6 µg/mL (≈ 11 µM)
COc1cc2c(cc1OCCCCCCOc1c(Cl)cc(Cl)cc1C(=O)c1ccccc1)N=C[C@@H]1CCCN1C2=O [Compound 5i, 7-methoxy-8-{3-[2-benzoyl-(4,6-di-chlorophenyloxy)hexyloxy]}-(11aS)-1,2,3,11a-tetrahydro-5H-pyrrolo[2,1-c][1,4]benzodiazepine-5-one] | 1.5 | 1.9 | 2.6 | gradually increased | 30 | 70 | >80 | – | >80 | – | >80 | >80 | 40 | 60 | >80 | – | >80 | – | 58 | 42 | –
COc1cc2c(cc1OCC(=O)Nc1ccc(Cl)cc1C(=O)c1ccccc1Cl)N=C[C@@H]1CCCN1C2=O [Compound 5j, 7-Methoxy-8-{N1-[4-chloro-2-(2-chlorobenzoyl)phenyl]2-oxyacetamido}-(11aS)-1,2,3,11a-tetrahydro-5H-pyrrolo[2,1-c][1,4]benzodiazepine-5-one] | 1.8 | 2.0 | 2.8 | gradually increased | 29 | 71 | 35 | 65 | 19 | 81 | 68 | >80 | 47 | 53 | 56 | 44 | 23 | 77 | 43 | 57 | –
COc1cc2c(cc1O)N=CC1CCCN1C2=O (stereo not drawn) [DC-81, reference compound] | 0.3 | 0.7 | – | – | – | – | – | – | – | – | – | – | – | – | – | – | – | – | – | – | –
